Data on 70 molecules can be found in ChEMBL document CHEMBL1158408, “Large-scale application of high-throughput molecular mechanics with Poisson-Boltzmann surface area for routine physics-based scoring of protein-ligand complexes” (J Med Chem, 2009).

This experiment has as its target T1, Tyrosine-protein phosphatase non-receptor type 1 (Homo sapiens, UniProt P18031).
T1 sequence (P18031 whole entry): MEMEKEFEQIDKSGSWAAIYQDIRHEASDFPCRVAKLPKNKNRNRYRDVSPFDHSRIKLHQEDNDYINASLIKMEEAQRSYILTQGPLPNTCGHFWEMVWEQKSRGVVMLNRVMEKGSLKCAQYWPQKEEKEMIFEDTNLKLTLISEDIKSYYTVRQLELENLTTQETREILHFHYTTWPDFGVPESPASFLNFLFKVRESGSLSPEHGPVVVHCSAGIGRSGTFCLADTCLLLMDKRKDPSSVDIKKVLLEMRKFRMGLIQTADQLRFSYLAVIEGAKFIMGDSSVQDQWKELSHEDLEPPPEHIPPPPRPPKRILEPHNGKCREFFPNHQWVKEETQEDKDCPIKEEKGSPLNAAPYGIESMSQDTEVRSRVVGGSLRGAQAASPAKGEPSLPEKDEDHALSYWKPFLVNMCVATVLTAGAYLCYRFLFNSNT
A word on the Ki: it is the dissociation constant of the complex between target and ligand, obtained from inhibition or displacement. A low value points to higher affinity. Consider `O=C(O)C(=O)N(c1ccccc1C(=O)O)c1cc([N+](=O)[O-])cc2ccccc12`, for which the affinity corresponds to a Ki of 10 µM.
The result for `O=C(O)C(=O)N(c1ccccc1/C=C/CO)c1ccccc1C(=O)O` reads 50.1 µM; that for `CCCC(=O)Nc1cc(-c2cc(C(=O)O)no2)ccc1NC(C)=O`, 251 µM; that for `O=C(O)C(=O)N(c1ccccc1C(=O)O)c1ccccc1N1CCCCC1`, 15.8 µM.
As to `CC[C@H](C)[C@H](NC(=O)CCCCNC(=O)[C@@H](Cc1ccc(NC(=O)C(=O)O)c(C(=O)O)c1)NC(C)=O)C(=O)O`, affinity was put at a Ki of 20 µM.
The result for `Nc1c(C(=O)O)noc1-c1ccccc1` reads 316 µM; that for `CCc1cc(CC(NC(C)=O)C(=O)NCCCCC(=O)NC2CCCCC2)ccc1N(C(=O)C(=O)O)c1ccccc1C(=O)O` (stereo not given), 3.98 µM.
Under `O=C(O)C(=O)Nc1sc2c(c1C(=O)O)CCN(Cc1ccccc1)C2` stands 63.1 µM.
As to `COC(=O)c1c(O)cccc1OCCn1ccc2ccc(-c3cc(C(=O)O)no3)cc21`, the Ki is 50.1 µM.
`CCc1cc(CC(NC(C)=O)C(=O)NCCCCC(=O)N[C@@H](CCSC)C(=O)O)ccc1N(C(=O)C(=O)O)c1cc(Cl)ccc1C(=O)O` (stereo not given in full) gave a Ki of 0.0631 µM.
In turn, `CCC(CN(C(=O)C(=O)O)c1ccc(CC(NC(=O)OC(C)(C)C)C(=O)NCCCCOc2cccc(O)c2C(=O)OC)cc1)C(=O)O` (stereo not given) gave an inhibition constant (Ki) of 1.58 µM.
Molecule `CCc1cc(CC(NC(C)=O)C(=O)NCCCCC(=O)N[C@@H](CSCc2ccccc2)C(=O)O)ccc1N(C(=O)C(=O)O)c1ccccc1C(=O)O` (stereo not given in full) had an inhibition constant (Ki) of 0.631 µM.
The molecule `CCCCCNC(=O)[C@@H](Cc1ccc(N(C(=O)C(=O)O)c2ccccc2C(=O)O)c(/C=C/C(N)=O)c1)NC(=O)NC(C)C` gave an inhibition constant Ki of 0.316 µM.
The result for `O=C(O)C(=O)N(c1ccc2ccccc2c1)c1ccccc1C(=O)O` reads 39.8 µM; that for `CCc1cc(CC(NC(C)=O)C(=O)NCCCCC(=O)NC(Cc2cccs2)C(=O)O)ccc1N(C(=O)C(=O)O)c1ccccc1C(=O)O` (stereo not given), 0.398 µM.
The molecule `COC(=O)c1c(O)cccc1OCCCCNC(=O)[C@@H](Cc1ccc(OCC(=O)O)c(C(=O)O)c1)NC(=O)OC(C)(C)C` had an inhibitory constant (Ki) of 2 µM.
The result for `CCCCCNC(=O)C(Cc1ccc(N2CCCCC2)c(N(C(=O)C(=O)O)c2ccccc2C(=O)O)c1)NC(C)=O` (stereo not given) reads 20 µM; that for `CCSCC[C@H](NC(=O)CCCCNC(=O)C(Cc1ccc(N(C(=O)C(=O)O)c2ccccc2C(=O)O)c(CC)c1)NC(C)=O)C(=O)O` (stereo not given in full), 0.126 µM.
For `O=C(O)c1ccc(O)cc1-n1c(=O)c(=O)oc2ccccc21`, the affinity, expressed as Ki, was 1.26 µM.
The molecule `CCc1cc(CC(NC(C)=O)C(=O)NCCCCC(=O)N[C@@H](CCC(N)=O)C(=O)O)ccc1N(C(=O)C(=O)O)c1ccccc1C(=O)O` (stereo not given in full) showed a Ki of 0.2 µM.
`CN(C(=O)[C@@H](Cc1ccc(N(C(=O)C(=O)O)c2ccccc2C(=O)O)cc1)NC(=O)OC(C)(C)C)C1CCC(C(=O)O)CC1` (stereo not given in full) had a Ki of 10 µM.
In the case of `Cn1ccc2c(N(C(=O)C(=O)O)c3ccccc3C(=O)O)cccc21`, the affinity corresponds to a Ki of 39.8 µM.
In the case of `CCCCCNC(=O)[C@H](Cc1ccc(N(C(=O)C(=O)O)c2ccccc2C(=O)O)c(/C=C/C(N)=O)c1)NC(=O)OC(C)(C)C`, the affinity, expressed as Ki, was 1.26 µM.
Turning to `CCc1cc(CC(NC(C)=O)C(=O)N[C@H](Cc2ccc([N+](=O)[O-])cc2)C(=O)NC)ccc1N(C(=O)C(=O)O)c1ccccc1C(=O)O` (stereo not given in full), the inhibitory constant (Ki) is 2 µM.
`CCc1cc(CC(NC(C)=O)C(=O)NCCCCOc2cccc(O)c2C(=O)O)ccc1N(C(=O)C(=O)O)c1ccccc1C(=O)O` (stereo not given) gave a Ki of 0.0316 µM.
For the molecule `CCc1cc(CC(NC(C)=O)C(=O)NCCCCC(=O)NC(C(=O)O)c2c[nH]c3ccccc23)ccc1N(C(=O)C(=O)O)c1ccccc1C(=O)O` (stereo not given), the Ki was 0.251 µM.
The molecule `CCc1cc(CC(NC(C)=O)C(=O)NCCCCC(=O)N[C@@H](CCCCN)C(=O)O)ccc1N(C(=O)C(=O)O)c1ccccc1C(=O)O` (stereo not given in full) gave an inhibition constant (Ki) of 1 µM.
Under `COCCC(CN(C(=O)C(=O)O)c1ccc(CC(NC(=O)OC(C)(C)C)C(=O)NCCCCOc2cccc(O)c2C(=O)OC)cc1)C(=O)O` (stereo not given) stands 7.94 µM; under `COC(=O)c1c(O)cccc1OCCNc1cccc(-c2cc(C(=O)O)no2)c1`, 50.1 µM.
The molecule `COC(=O)c1c(O)cccc1OCCCCNC(=O)C(Cc1ccc(OCC(=O)O)c(O)c1)NC(C)=O` (stereo not given) showed an inhibitory constant (Ki) of 7.94 µM.
Consider `O=C(O)C(=O)N(c1ccccc1C(=O)O)c1cccc2ccccc12`, for which the affinity corresponds to a Ki of 158 µM.
`O=C(O)c1cc(-c2ccccc2NCCO)on1` had an inhibition constant (Ki) of 1000 µM.
The result for `CCc1cc(CC(NC(C)=O)C(=O)NCCCCC(=O)NC(Cc2ccc(Cl)cc2)C(=O)O)ccc1N(C(=O)C(=O)O)c1ccccc1C(=O)O` (stereo not given) reads 0.631 µM.
Under `CC(=O)NC(Cc1ccc(N(C(=O)C(=O)O)c2ccccc2C(=O)O)c2ccccc12)C(=O)NCCCCCOc1cc2ccccc2cc1C(=O)O` (single isomer, unassigned) stands 0.02 µM; under `CC(=O)NC(Cc1ccc(N(C(=O)C(=O)O)c2ccccc2C(=O)O)c(CCO)c1)C(=O)O` (stereo not given), 6.31 µM; under `CC[C@H](C)[C@H](NC(=O)CCCCNC(=O)C(Cc1ccc(N(C(=O)C(=O)O)c2ccccc2C(=O)O)c2ccccc12)NC(C)=O)C(=O)O` (stereo not given in full), 0.2 µM.
For `COC(=O)c1c(O)cccc1OCCCCNC(=O)C(Cc1ccc(N(CC(Cc2ccccc2)C(=O)O)C(=O)C(=O)O)cc1)NC(=O)OC(C)(C)C` (stereo not given), the inhibition constant (Ki) is 5.01 µM.
Molecule `O=C(O)C(=O)N(c1ccccc1Cc1ccccc1)c1ccccc1C(=O)O` had a Ki of 25.1 µM.
The molecule `O=C(O)C(=O)N(c1ccccc1C(=O)O)c1c(O)ccc2ccccc12` gave a Ki of 7.94 µM.
In the case of `CCc1cc(CC(NC(C)=O)C(=O)NCCCCC(=O)N[C@@H](Cc2ccc(O)cc2)C(=O)O)ccc1N(C(=O)C(=O)O)c1ccccc1C(=O)O` (stereo not given in full), affinity was put at a Ki of 0.158 µM.
With `CCCCCNC(=O)[C@H](Cc1ccc(N(C(=O)C(=O)O)c2ccccc2C(=O)O)c(/C=C/C(N)=O)c1)NC(=O)[C@H](Cc1ccccc1)NC(=O)CCC(=O)O`, the affinity corresponds to a Ki of 0.02 µM.
In the case of `O=C(O)c1cc(-c2cccc(-c3cccc(-c4cc(C(=O)O)no4)c3)c2)on1`, the inhibition constant (Ki) was 79.4 µM.
`COC(=O)N[C@H](Cc1ccc(N(C(=O)C(=O)O)c2ccccc2C(=O)O)cc1)C(=O)NCCCCOc1cc(-c2ccccc2)cc(O)c1C(=O)OC`: the inhibition constant (Ki) was 1 µM.
With `COC(=O)c1c(O)cccc1OC/C=C/c1cccc(-c2onc(C(=O)O)c2N)c1`, the Ki was 15.8 µM.
For `Nc1ccc(-c2cc(C(=O)O)no2)cc1`, the affinity corresponds to a Ki of 3160 µM.
In turn, `COC(=O)c1c(O)cccc1OC(CO)CCc1cc(-c2cc(C(=O)O)no2)ccc1F` (stereo not given) gave a Ki of 126 µM.
The molecule `CC(=O)NC(Cc1ccc(N(C(=O)C(=O)O)c2ccccc2C(=O)O)c(CCO)c1)C(=O)NCc1ccc([N+](=O)[O-])cc1` (stereo not given) had a Ki of 0.251 µM.
Under `N#Cc1ccc(C(=O)O)c(N(C(=O)C(=O)O)c2cccc3ccc(O)cc23)c1` stands 3.98 µM; under `CCc1cc(CC(NC(C)=O)C(=O)NCCCCC(=O)N2CCC[C@@H]2C(=O)O)ccc1N(C(=O)C(=O)O)c1ccccc1C(=O)O` (stereo not given in full), 2 µM; under `CCc1cc(CC(NC(C)=O)C(=O)NCCCCC(=O)NC(Cc2nccs2)C(=O)O)ccc1N(C(=O)C(=O)O)c1ccccc1C(=O)O` (stereo not given), 0.631 µM.
The molecule `O=C(O)C(=O)N(c1ccccc1C(=O)O)c1ccccc1N1CCC(CO)CC1` gave a Ki of 12.6 µM.
Under `O=C(O)C(=O)N(c1cc(O)ccc1C(=O)O)c1cccc2ccc(O)cc12` stands 2 µM; under `O=C(O)/C=N/OCc1ccccc1`, 3160 µM; under `CC(=O)NC(Cc1ccc(N(C(=O)C(=O)O)c2ccccc2C(=O)O)c2ccccc12)C(=O)NCCCN1CCCC1=O` (stereo not given), 7.94 µM.
On to `COC(=O)c1c(O)cccc1OC/C=C/c1ccc2c(c1)-c1onc(C(=O)O)c1CC2`, for which the Ki was 12.6 µM.
With `CCCCCN1C(=O)C(=O)N(C(C)=O)C(Cc2ccc(N(C(=O)C(=O)O)c3ccccc3C(=O)O)c(CC)c2)C1=O` (stereo not given), affinity was put at a Ki of 5.01 µM.
`O=C(O)C(=O)N(c1ccccc1C(=O)O)c1ccccc1N1CCCC(CO)C1` (stereo not given) gave a Ki of 20 µM.
`COC(=O)c1c(O)cccc1OCCCCNC(C)CCc1ccc(N(C(=O)C(=O)O)c2ccccc2C(=O)O)c2ccccc12` (stereo not given) showed an inhibition constant (Ki) of 0.316 µM.
For `NC(=O)c1ccc2cccc(N(C(=O)C(=O)O)c3ccccc3C(=O)O)c2c1`, the Ki is 3.98 µM.
`CC(=O)N1CCC(C(=O)Nc2cccc(-c3cc(C(=O)O)no3)c2)CC1` gave a Ki of 79.4 µM.
The result for `O=C(O)c1nc2ccccc2s1` reads 1000 µM; that for `CCCCCNC(=O)[C@H](Cc1ccc(N(C(=O)C(=O)O)c2ccccc2C(=O)O)cc1)NC(=O)[C@H](Cc1ccc(C(=O)c2ccccc2)cc1)NC(=O)OC(C)(C)C`, 1.26 µM; that for `O=C(O)C(=O)N(c1cc(Cl)ccc1C(=O)O)c1cccc2ccc(O)cc12`, 3.98 µM.
`CC(C)(C)OC(=O)Nc1ccc(O)c(-c2cc(C(=O)O)no2)c1`: affinity was put at a Ki of 794 µM.
For the molecule `O=C(O)c1noc(-c2cccc(I)c2)c1CO`, the Ki was 126 µM.
With `C=CCOC(=O)N[C@@H](Cc1ccc(N(C(=O)C(=O)O)c2ccccc2C(=O)O)cc1)C(=O)NCCCCOc1cccc(O)c1C(=O)OC`, affinity was put at a Ki of 0.126 µM.
The molecule `CC[C@H](C)[C@H](NC(=O)CCCCNC(=O)[C@@H](Cc1ccc(N(C(=O)C(=O)O)c2ccccc2C(=O)O)cc1)NC(C)=O)C(=O)O` had a Ki of 3.98 µM.
Molecule `COC(=O)c1c(O)cccc1OC[C@H]1C[C@H]1c1cccc(-c2cc(C(=O)O)no2)c1` showed a Ki of 25.1 µM.
As for `COC(=O)c1c(O)cccc1OCCCC(=O)Nc1cccc(-c2cc(C(=O)O)no2)c1`, the affinity corresponds to a Ki of 251 µM.
`C=CCOC(=O)N[C@H](Cc1ccc(N(C(=O)C(=O)O)c2ccccc2C(=O)O)cc1)C(=O)N[C@H](C)c1ccc([N+](=O)[O-])cc1` gave a Ki of 3.98 µM.
